Measured values from patent US9067948B2 (Nimbus Iris, Inc., priority 2012, dated 2015).

Molecular target: T1, IRAK-4 (Homo sapiens, UniProt Q9NWZ3)
T1 sequence (Q9NWZ3 1-460): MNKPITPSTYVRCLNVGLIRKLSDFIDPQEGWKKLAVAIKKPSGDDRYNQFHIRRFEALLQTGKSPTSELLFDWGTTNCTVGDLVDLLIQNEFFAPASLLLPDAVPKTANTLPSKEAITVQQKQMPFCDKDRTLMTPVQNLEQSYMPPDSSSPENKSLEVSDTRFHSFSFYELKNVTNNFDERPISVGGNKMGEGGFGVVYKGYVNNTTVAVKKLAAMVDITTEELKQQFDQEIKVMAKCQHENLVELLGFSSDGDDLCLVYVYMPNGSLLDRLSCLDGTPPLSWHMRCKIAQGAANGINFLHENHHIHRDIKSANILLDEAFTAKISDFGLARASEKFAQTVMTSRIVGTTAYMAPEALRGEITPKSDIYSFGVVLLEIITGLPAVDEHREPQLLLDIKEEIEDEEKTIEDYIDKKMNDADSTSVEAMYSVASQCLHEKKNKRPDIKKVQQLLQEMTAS
Assay: IRAK-4 activity inhibition assay (Caliper)
Type: biochemical
Conditions: 3.5 nM IRAK4, 37 μM ATP, 1.5 μM Peptide 8, 28° C. 40 minutes
Description: A 1× kinase base buffer was prepared from 50 mM HEPES, pH 7.5 and 0.0015% Brij-35. A stop buffer was prepared from 100 mM HEPES, pH 7.5, 0.015% Brij-35, 0.2% Coating Reagent #3, and 50 mM EDTA.
Test compound was diluted to 50× of the final desired highest inhibitor concentration in reaction by 100% DMSO. 100 ul of this compound dilution was transferred to a well in a 96-well plate.
Test compound was serially diluted by transferring 30 μl to 60 μl of 100% DMSO in the next well and so forth for a total of 10 concentrations. 100 μl of 100% DMSO was added to two empty wells for no compound control and no enzyme control in the same 96-well plate.
A new 96-well plate was marked as intermediate plate. 5 μl of compound serial dilution was transferred from source plate to the corresponding wells of the intermediate plate. 45 μl of 1× kinase base buffer (KB buffer) was added to each well of the intermediate plate. The intermediate plate was placed for 10 min on a shaker.
5 μl of each well was transferred from the 96-well intermediate plate to a 384-well plate in duplicates. For example, A1 of the 96-well plate is transferred to A1 and A2 of the 384-well plate. A2 of the 96-well plate is transferred to A3 and A4 of the 384-well plate, and so on.
IRAK4 and DTT in 1× kinase base buffer was added. The 2.5× enzyme mix contained 8.8 nM IRAK4 and 5 mM DTT.
Peptide 8, ATP, MgCl2 and MnCl2 were added in the 1× kinase base buffer. The 2.5× peptide mix contained 3.75 μM peptide 8, 92.5 μM ATP, 12.5 mM MgCl2 and 2.5 mM MnCl2.
Assay plate already contained 5 μl of compound in 10% DMSO. Added 10 μl of 2.5× enzyme solution to each well of the 384-well assay plate, except no enzyme control wells. The final concentration of IRAK4 in reaction was 3.5 nM. Added 10 μl of 1× kinase base buffer to no enzyme control wells in the assay plate. Incubated at room temperature for 10 min.
Added 10 μl of 2.5× peptide solution to each well of the 384-well assay plate. The final concentration of Peptide 8 and ATP was 1.5 μM and 37 μM, respectively. Incubated at 28° C. for 40 minutes. Added 25 μl of stop buffer to stop reaction. Collected data on Caliper.
Copied conversion % data from Caliper program. Converted conversion % values to percent inhibition values. Percent inhibition=(max−conversion %)/(max−min)*100, where “max” means the conversion % of DMSO control and “min” means the conversion % of no enzyme control.

| Compound | IC50 [µM] |
| --- | --- |
| CN(C)[C@H]1CC[C@H](Oc2ccnc3sc4c(c23)CCC4)CC1 [Compound I-1] | ≤ 5 |
| c1cc(O[C@H]2CC[C@H](N3CCOCC3)CC2)c2c3c(sc2n1)CCC3 [Compound I-3] | ≤ 5 |
| CN(CC(=O)N1CCCC1)[C@H]1CC[C@H](Nc2ccnc3sc4c(c23)CCC4)CC1 [Compound I-207, 2-[methyl[4-([7-thia-9-azatricyclo[6.4.0.0[2,6]]dodeca-1(8),2(6),9,11-tetraen-12yl]amino)cyclohexyl]amino]-1-(pyrrolidin-1-yl)ethan-1-one] | ≤ 5 |
| Cn1cc(Nc2cc(N[C@H]3CC[C@H](N4CCOCC4)CC3)c3c4c(sc3n2)CCC4)cn1 [Compound I-208, N2-(1-methyl-1H-pyrazol-4-yl)-N4-((1r,4r)-4-morpholinocyclohexyl)-6,7-dihydro-5H-cyclopenta[4,5]thieno[2,3-b]pyridine-2,4-diamine] | 20 to 50 |

Now from value to compound:

| IC50 [µM] | Compound |
| --- | --- |
| ≤ 5 | c1cc(N[C@H]2CC[C@H](N3CCOCC3)CC2)c2c3c(sc2n1)CCC3 [Compound I-2] |
| ≤ 5 | CN(C)[C@H]1CC[C@H](Nc2ccnc3sc4c(c23)CCC4)CC1 [Compound I-4, 1-N,1-N-dimethyl-4-N-[7-thia-9-azatricyclo[6.4.0.0^[2,6]]dodeca-1(12),2(6),8,10-tetraen-12-yl]cyclohexane-1,4-diamine] |
| ≤ 5 | N[C@H]1CC[C@H](Nc2ccnc3sc4c(c23)CCC4)CC1 [Compound I-205] |
| ≤ 5 | CN[C@H]1CC[C@H](Nc2ccnc3sc4c(c23)CCC4)CC1 [Compound I-206, 1-N-methyl-4-N-[7-thia-9-azatricyclo[6.4.0.0[2,6]]dodeca-1(12),2(6),8,10-tetraen-12-yl]cyclohexane-1,4-diamine] |
